According to patent publication US20250163054A1, “SUBSTITUTED BICYCLIC HETEROARYL COMPOUNDS USEFUL AS INHIBITORS OF TLR9” (Bristol-Myers Squibb Company, priority 2022, published 2025):

Columns and labels:
Assay type in all cases: cell-based
human TLR8 = molecular target: T1, human TLR8 (Homo sapiens, UniProt Q9NR97); assay: TLR7/8/9 Inhibition Reporter Assays (TLR8); details: HEK-Blue cells overexpressing human TLR8, SEAP reporter, stimulated with TLR8 ligand R848
T1 construct: host or cells: HEK-Blue cells (HEK293-derived reporter line)
T1 sequence (Q9NR97 27-1041): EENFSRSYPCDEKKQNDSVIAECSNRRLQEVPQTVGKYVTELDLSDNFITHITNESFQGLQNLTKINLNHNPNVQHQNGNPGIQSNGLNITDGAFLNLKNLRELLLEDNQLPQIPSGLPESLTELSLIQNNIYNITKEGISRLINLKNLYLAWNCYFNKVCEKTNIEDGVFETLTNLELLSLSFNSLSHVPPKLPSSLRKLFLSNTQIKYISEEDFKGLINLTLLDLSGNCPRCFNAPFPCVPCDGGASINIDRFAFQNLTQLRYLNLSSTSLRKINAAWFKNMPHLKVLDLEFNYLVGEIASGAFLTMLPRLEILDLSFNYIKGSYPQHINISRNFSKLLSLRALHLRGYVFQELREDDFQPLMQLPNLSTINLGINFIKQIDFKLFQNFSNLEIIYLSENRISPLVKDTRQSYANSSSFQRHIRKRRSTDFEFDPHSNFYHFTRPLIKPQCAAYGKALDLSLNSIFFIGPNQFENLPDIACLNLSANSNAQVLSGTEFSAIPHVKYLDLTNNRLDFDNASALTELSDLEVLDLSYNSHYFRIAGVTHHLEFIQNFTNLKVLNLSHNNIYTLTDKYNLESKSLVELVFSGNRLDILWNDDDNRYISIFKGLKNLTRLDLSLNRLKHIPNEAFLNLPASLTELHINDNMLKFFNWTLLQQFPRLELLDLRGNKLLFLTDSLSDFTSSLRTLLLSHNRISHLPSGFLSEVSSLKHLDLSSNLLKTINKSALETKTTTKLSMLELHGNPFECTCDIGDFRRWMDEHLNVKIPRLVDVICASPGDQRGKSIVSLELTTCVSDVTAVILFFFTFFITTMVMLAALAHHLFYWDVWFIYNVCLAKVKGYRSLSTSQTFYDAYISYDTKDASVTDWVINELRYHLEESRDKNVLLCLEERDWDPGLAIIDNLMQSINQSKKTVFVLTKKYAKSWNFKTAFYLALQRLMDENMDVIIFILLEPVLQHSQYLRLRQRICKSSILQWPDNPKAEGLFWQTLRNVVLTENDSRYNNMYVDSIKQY
Outline: (§1)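 HEK-Blue cells overexpressing human TLR7, TLR8 or TLR9 with NF-κB/AP-1-driven SEAP reporter, pre-treated 60 min with compound ([…]). Stimulated with […] (TLR7), […] (TLR8) or ODN2006 200 nM (TLR9), then 22 h at 37° C; SEAP measured, % inhibition relative to agonist-plus-DMSO and known-inhibitor wells.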

human TLR7 = molecular target: T2, human TLR7 (Homo sapiens, UniProt Q9NYK1); assay: TLR7/8/9 Inhibition Reporter Assays (TLR7); details: HEK-Blue cells overexpressing human TLR7, SEAP reporter, stimulated with TLR7 ligand gardiquimod
T2 construct: host or cells: HEK-Blue cells (HEK293-derived reporter line)
T2 sequence (Q9NYK1 27-1049): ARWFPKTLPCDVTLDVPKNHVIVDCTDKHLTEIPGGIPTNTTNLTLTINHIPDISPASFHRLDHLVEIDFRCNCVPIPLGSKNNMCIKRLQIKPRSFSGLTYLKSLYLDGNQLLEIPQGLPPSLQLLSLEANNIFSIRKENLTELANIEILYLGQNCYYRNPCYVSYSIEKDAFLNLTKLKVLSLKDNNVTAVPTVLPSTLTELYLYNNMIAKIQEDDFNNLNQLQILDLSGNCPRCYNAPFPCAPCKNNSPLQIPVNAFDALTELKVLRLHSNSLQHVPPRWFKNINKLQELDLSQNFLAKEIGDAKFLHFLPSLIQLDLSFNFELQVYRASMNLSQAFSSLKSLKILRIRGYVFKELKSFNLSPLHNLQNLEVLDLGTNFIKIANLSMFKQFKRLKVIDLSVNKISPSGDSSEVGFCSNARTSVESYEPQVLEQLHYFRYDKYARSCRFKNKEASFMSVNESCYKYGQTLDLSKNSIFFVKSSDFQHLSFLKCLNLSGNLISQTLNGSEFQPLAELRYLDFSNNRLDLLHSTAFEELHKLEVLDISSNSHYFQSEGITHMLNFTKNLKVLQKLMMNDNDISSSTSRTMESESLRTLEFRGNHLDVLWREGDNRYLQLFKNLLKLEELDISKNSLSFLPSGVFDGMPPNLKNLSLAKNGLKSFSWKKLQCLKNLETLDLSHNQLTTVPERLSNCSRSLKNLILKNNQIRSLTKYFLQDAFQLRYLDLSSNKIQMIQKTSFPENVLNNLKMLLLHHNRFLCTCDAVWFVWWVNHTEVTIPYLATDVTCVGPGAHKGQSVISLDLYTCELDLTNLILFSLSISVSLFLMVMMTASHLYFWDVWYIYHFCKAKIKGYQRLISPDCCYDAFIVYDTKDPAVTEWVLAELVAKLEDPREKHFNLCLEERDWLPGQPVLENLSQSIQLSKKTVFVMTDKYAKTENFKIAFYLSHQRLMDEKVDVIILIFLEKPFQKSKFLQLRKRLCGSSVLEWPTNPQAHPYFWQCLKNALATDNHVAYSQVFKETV
Outline: as §1

human TLR9 = molecular target: T3, human TLR9 (Homo sapiens, UniProt Q9NR96); assay: TLR7/8/9 Inhibition Reporter Assays (TLR9); details: HEK-Blue cells overexpressing human TLR9, SEAP reporter, stimulated with TLR9 ligand ODN2006
T3 construct: host or cells: HEK-Blue cells (HEK293-derived reporter line)
T3 sequence (Q9NR96 26-1032): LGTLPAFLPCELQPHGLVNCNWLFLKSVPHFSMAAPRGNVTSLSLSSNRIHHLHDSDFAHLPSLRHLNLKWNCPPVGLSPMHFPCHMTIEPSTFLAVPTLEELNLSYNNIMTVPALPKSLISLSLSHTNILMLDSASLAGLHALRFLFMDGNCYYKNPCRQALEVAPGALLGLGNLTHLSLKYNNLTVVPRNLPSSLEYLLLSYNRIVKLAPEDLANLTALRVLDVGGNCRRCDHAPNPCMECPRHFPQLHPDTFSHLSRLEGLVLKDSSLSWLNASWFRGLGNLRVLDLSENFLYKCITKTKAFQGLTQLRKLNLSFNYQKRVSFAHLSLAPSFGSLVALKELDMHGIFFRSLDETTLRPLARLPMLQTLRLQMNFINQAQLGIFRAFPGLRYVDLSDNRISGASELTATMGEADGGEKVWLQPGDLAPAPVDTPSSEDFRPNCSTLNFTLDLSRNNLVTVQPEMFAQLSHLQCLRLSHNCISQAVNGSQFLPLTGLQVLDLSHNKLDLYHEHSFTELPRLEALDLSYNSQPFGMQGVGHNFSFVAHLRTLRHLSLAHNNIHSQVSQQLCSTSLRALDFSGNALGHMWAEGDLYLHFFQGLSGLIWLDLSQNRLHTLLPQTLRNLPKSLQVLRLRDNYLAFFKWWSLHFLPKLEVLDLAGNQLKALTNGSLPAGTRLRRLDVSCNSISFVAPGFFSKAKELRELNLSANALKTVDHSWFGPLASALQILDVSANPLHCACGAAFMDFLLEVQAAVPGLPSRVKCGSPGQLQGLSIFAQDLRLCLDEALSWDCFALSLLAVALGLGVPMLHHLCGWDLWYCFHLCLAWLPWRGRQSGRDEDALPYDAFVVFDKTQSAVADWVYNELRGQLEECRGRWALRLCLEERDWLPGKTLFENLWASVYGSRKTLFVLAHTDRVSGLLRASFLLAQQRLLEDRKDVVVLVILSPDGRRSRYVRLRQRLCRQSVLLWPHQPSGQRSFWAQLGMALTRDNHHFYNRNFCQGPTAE
Outline: as §1

Row | IC50 (human TLR8) [nM] | IC50 (human TLR7) [nM] | IC50 (human TLR9) [nM] | Structure (SMILES)
1 | 28000 | 890 | 97 | COc1ccc(-c2nc3c(C)nc(-c4ccc(N5CCC6(CC5)CN(CC(C)C)C6)cc4)cc3n2C)cc1OC [Example 75, 2-(3,4-dimethoxyphenyl)-6-(4-(2-isobutyl-2,7-diazaspiro[3.5]nonan-7-yl)phenyl)-1,4-dimethyl-1H-imidazo[4,5-c]pyridine]
2 | 3600 | 1800 | 23 | COc1ccc(-c2nc3c(C)nc(-c4ccc(N5CC6(C5)CN(C(C)C)C6)cc4)cc3n2C)cc1OC [Example 76, 2-(3,4-dimethoxyphenyl)-6-(4-(6-isopropyl-2,6-diazaspiro[3.3]heptan-2-yl)phenyl)-1,4-dimethyl-1H-imidazo[4,5-c]pyridine]
3 | 6900 | 870 | 13 | COc1ccc(-c2nc3c(C)nc(-c4ccc(N5CC6(C5)CN(C5CCC5)C6)cc4)cc3n2C)cc1OC [Example 77, 6-(4-(6-cyclobutyl-2,6-diazaspiro[3.3]heptan-2-yl)phenyl)-2-(3,4-dimethoxyphenyl)-1,4-dimethyl-1H-imidazo[4,5-c]pyridine]
4 | 6300 | 7800 | 130 | Cc1nc(-c2ccc(N3CC4(C3)CN(C(C)C)C4)cc2)cc2c1nc(-c1ccc(S(C)(=O)=O)cc1)n2C [Example 78, 6-(4-(6-isopropyl-2,6-diazaspiro[3.3]heptan-2-yl)phenyl)-1,4-dimethyl-2-(4-(methylsulfonyl)phenyl)-1H-imidazo[4,5-c]pyridine]
5 | 3700 | 1100 | 130 | Cc1nc(-c2ccc(N3CC4(C3)CN(C3CCC3)C4)cc2)cc2c1nc(-c1ccc(S(C)(=O)=O)cc1)n2C [Example 79, 6-(4-(6-cyclobutyl-2,6-diazaspiro[3.3]heptan-2-yl)phenyl)-1,4-dimethyl-2-(4-(methylsulfonyl)phenyl)-1H-imidazo[4,5-c]pyridine]
6 | 15000 | 590 | 61 | COc1ccc(-c2nc3c(C)nc(-c4ccc(N5CCC6(CC5)CN(C5CCC5)C6)cc4)cc3n2C)cc1OC [Example 80, 6-(4-(2-cyclobutyl-2,7-diazaspiro[3.5]nonan-7-yl)phenyl)-2-(3,4-dimethoxyphenyl)-1,4-dimethyl-1H-imidazo[4,5-c]pyridine]
7 | 3300 | 3000 | 120 | COc1ccc(-c2nc3cnc(-c4ccc(N5C[C@@H]6CN(C(C)C)C[C@@H]6C5)cc4)cc3n2C2CC2)cc1OC [Example 81, 1-cyclopropyl-2-(3,4-dimethoxyphenyl)-6-(4-((3aR,6aS)-5-isopropylhexahydropyrrolo[3,4-c]pyrrol-2(1H)-yl)phenyl)-1H-imidazo[4,5-c]pyridine]
8 | 4200 | 3800 | 220 | COc1ccc(-c2nc3cnc(-c4ccc(N5C[C@H]6CN(CC(C)C)C[C@H]6C5)cc4)cc3n2C2CC2)cc1OC [Example 82, 1-cyclopropyl-2-(3,4-dimethoxyphenyl)-6-(4-((3aR,6aS)-5-isobutylhexahydropyrrolo[3,4-c]pyrrol-2(1H)-yl)phenyl)-1H-imidazo[4,5-c]pyridine]
9 | 12000 | 1800 | 340 | COc1ccc(-c2nc3cnc(-c4ccc(N5CCC6(CC5)CN(C(C)C)C6)cc4)cc3n2C2CC2)cc1OC [Example 83, 1-cyclopropyl-2-(3,4-dimethoxyphenyl)-6-(4-(2-isopropyl-2,7-diazaspiro[3.5]nonan-7-yl)phenyl)-1H-imidazo[4,5-c]pyridine]
10 | 2200 | 4400 | 180 | COc1ccc(-c2nc3cnc(-c4ccc(N5CC6(C5)CN(C(C)C)C6)cc4)cc3n2C2CC2)cc1OC [Example 84, 1-cyclopropyl-2-(3,4-dimethoxyphenyl)-6-(4-(6-isopropyl-2,6-diazaspiro[3.3]heptan-2-yl)phenyl)-1H-imidazo[4,5-c]pyridine]
11 | 2500 | 3200 | 170 | COc1ccc(-c2nc3cnc(-c4ccc(N5CC6(CN(CC(C)C)C6)C5)cc4)cc3n2C2CC2)cc1OC [Example 85, 1-cyclopropyl-2-(3,4-dimethoxyphenyl)-6-(4-(6-isobutyl-2,6-diazaspiro[3.3]heptan-2-yl)phenyl)-1H-imidazo[4,5-c]pyridine]
12 | 3000 | 6700 | 270 | CC(C)CN1CC2(CCN(c3ccc(-c4cc5c(cn4)nc(-c4ccc(S(C)(=O)=O)cc4)n5C4CC4)cc3)CC2)C1 [Example 86, 1-cyclopropyl-6-(4-(2-isobutyl-2,7-diazaspiro[3.5]nonan-7-yl)phenyl)-2-(4-(methylsulfonyl)phenyl)-1H-imidazo[4,5-c]pyridine]
